Measured values: US7601501B2, “Controlling osteogenesis by inhibition of osteogenic suppressors” (The Scripps Research Institute, priority 2006, dated 2009)
Entries after “also recorded” stand apart in the source; their conditions may differ. Strand notation (5' to 3'): a small letter for the sugar, then the base; units joined by * are phosphorothioate-linked, units joined directly phosphodiester-linked; [ ] holds rarer units or linkages, { } end groups; capitals alone tell only the bases. d = 2'-deoxy (DNA)

How the values were obtained:
[1] = tested on: CREB; test: CRE decoy transfection followed by osteogenic or adipogenic induction media; assay type: cell-based, human; details: 90 nM oligonucleotide, vs CRE mismatch control; for adipogenic differentiation after decoy transfection: adipogenic induction media
Procedure: (§1) The human mesenchymal stem cells (hMSCs, PT-2501) were purchased from Cambrex Inc. and cultured as instructed by the supplier. Cells were expanded to passage 5 before being used for siRNA library screen. Briefly, diluted Xtreme-siRNA transfection reagent (cat# 4 476 115 00, Roche) (0.12 μl Xtreme in 14 μl DMEM) was mixed with pre-spotted siRNA (14 ng/well) in each well of 384-well plates for one hour. Cells (4000/well) in 60 μl media (no antibiotics) were then added using automated dispenser (Multidrop 384, Thermo LabSystems) (siRNA final concentration at around 15 nM). Transfection was allowed to continue for 8 hours before first media renewal. After 7 days of culture, cells were stained for alkaline phosphatase (ALP) activity (cat# 86R-1KT, Sigma). Post-screen assays were done in 96-well plates and siRNA was transfected at the concentration of 30 nM at the cell density of 8000 cells/well. CRE decoy oligonucleotide and control oligonucleotide (phosphorothioate bond modification on all nucleotides) (Park, Y. G. et al., J Biol Chem 274:1573-1580 (1999)) were transfected into cells similarly as siRNA using Xtreme-siRNA transfection reagent, except that the final DNA concentration was 90 nM. Control siRNA (siCon) used in the screen contains a pool of 50 scrambled sequences that have at least 4 mismatches to known human transcripts and ESTs, and at least 2-3 mismatches to the whole human genome. siCon used in target characterization after primary screen was purchased from Dharmacon (D-001210-01-05), which was bioinformatically designed to have >=4 mismatches with known human and mouse genes. siTOX was also purchased from Dharmacon (D-001500-01-05).
To find out whether CREB (cAMP Responding Element Binding protein), a common downstream effector of cAMP signaling pathway, is involved in mediating cAMP signaling controlled differentiation of hMSCs, we checked the expression level of the active form of CREB proteins in cells 3 days after siP2RY11, siADK, siGNAS, siSLC12a2 or siCon transfection. […]

[2] = tested on: human mesenchymal stem cells (hMSCs); test: Oil Red O staining, adipogenic differentiation with adipogenic inducing media; assay type: cell-based
Procedure: Cells were rinsed with PBS twice, fixed in 10% formalin solution for 20 minutes, rinsed with PBS twice and dH2O once, washed with propylene glycol for 5 minutes, and stained with Oil red in propylene glycol (I2722A, Newcomer Supply) for 30 minutes. Cells were then washed with 85% propylene glycol for 5 minutes, rinsed with dH2O 3 times and preserved in 50% glycerol.
Bone cell maturation is accompanied by extracellular matrix (ECM) mineralization (John Bilezikian et al., Principles of bone biology, Vol 1, 2nd edn: Academic Press) (2002)). To examine whether the osteogenic differentiation of hMSCs induced by the hit siRNAs can further proceed to the maturation stage, hit siRNA treated cells were cultured for 20 days. […] These observations are consistent with the conclusion that the targeted genes of the ten effective hit siRNAs not only play inhibitory roles in osteogenic specification of hMSCs, but also in bone cell maturation. […] Furthermore, in osteoporotic patients, the number of adipocytes was increased in the marrow, implying a change of cell fate disposition from osteoblast lineage to adipocyte lineage (Justesen, J. et al., Biogerontology 2:165-171 (2001); Meunier, P. et al., Clin Orthop Relat Res 80:147-154 (1971)). […]

[3] = tested on: human mesenchymal stem cells (hMSCs); test: Compound treatment: OS-induced osteogenic differentiation of hMSCs (ALP / alizarin red staining); assay type: cell-based; details: compound combined with OS treatment; ALP and/or alizarin red staining
Procedure: 8-CPT-cAMP, Na (cat# 116812), 5-Iodotubercidin (cat# 407900), Prostaglandin E2 (PGE2, cat# 538904), SB 202190 (cat# 559388) and U0126 (cat# 662005) were purchased from Calbiochem; N6,2′-O-Dibutyryl-cAMP (cat# D0260-5MG), forskolin (cat# F6886), ascorbic acid 2-phosphate (cat# 49752-10G), β-glycerophosphate (G-6251), dexamethasone (D8893), 3-isobutyl-1-methylxanthine (IBMX, I5879) and Insulin (I 9278) were purchased from Sigma/Aldrich/Fluka.
Since the targeted genes are all positively involved in intracellular cAMP signaling, we tested the effect of two compounds of opposing function on cAMP production on osteogenic differentiation of hMSCs, ADK inhibitor 5-iodotubercidin and ADCY activator forskolin (Cottam, H. B. et al., J Med Chem 36:3424-3430 (1993); de Souza, N. J. et al., Med Res Rev 3:201-219 (1983)). […] ATP has been shown as a ligand for P2RY11 receptor (Communi et al., 1997). […] The present observations are consistent with the conclusion that […] in hMSCs, and vice versa.

[4] = tested on: BMP-2, PLZF, TAZ; test: RT-PCR of positive regulators of osteogenesis; assay type: cell-based, human; details: samples collected on day 7 or day 12 after siRNA transfection
Procedure: Total RNA from each sample was prepared from around 5×10(4) cells using RNAeasy mini kit from Qiagen and further treated with Turbo DNA-Free (cat# 1907, Ambion) to prevent DNA contamination. Reverse transcription was carried out using SuperScript First-Strand Synthesis System for RT-PCR (cat# 11904-018, Invitrogen) or Qiagen OneStep RT-PCR kit (cat# 210210) as instructed. PCR primers used were as follows: […]
To test their roles in our siRNA induced osteogenic differentiation, RT-PCR was performed on these genes. […] In addition, MAPK signaling pathways have been shown activated in the OS treated hMSCs, and inhibition of these pathways suppresses OS induced osteogenesis (FIG. 9b) (Jaiswal, R. K. et al., J Biol Chem 275:9645-9652 (2000)).

[5] = tested on: human mesenchymal stem cells (hMSCs); test: Alizarin red staining for calcium phosphate deposits (ECM mineralization, bone cell maturation); assay type: cell-based; details: OS started three days after siRNA transfection and continued for 9 days
Procedure: Cells were rinsed with PBS twice, stained in alizarin red solution (cat# vw3611-2, VWR) for 8 minutes at room temperature, washed with PBS again, fixed in 10% formalin solution (cat# HT-5014, Sigma) for 20 minutes, then rinsed with water and air dried.
Bone cell maturation is accompanied by extracellular matrix (ECM) mineralization (John Bilezikian et al., Principles of bone biology, Vol 1, 2nd edn: Academic Press) (2002)). […] […] These observations are consistent with the conclusion that the targeted genes of the ten effective hit siRNAs not only play inhibitory roles in osteogenic specification of hMSCs, but also in bone cell maturation. […] Furthermore, in osteoporotic patients, the number of adipocytes was increased in the marrow, implying a change of cell fate disposition from osteoblast lineage to adipocyte lineage (Justesen, J. et al., Biogerontology 2:165-171 (2001); Meunier, P. et al., Clin Orthop Relat Res 80:147-154 (1971)). We therefore examined the effect of our hit siRNAs on adipogenic differentiation of hMSCs by combined treatment with an adipogenic inducing cocktail (100 μg/ml IBMX, 1 μM DEX and 10 μg/ml insulin).

[6] = tested on: human mesenchymal stem cells (hMSCs); test: Alkaline phosphatase (ALP) activity staining of siRNA-transfected hMSCs (osteogenic differentiation screen); assay type: cell-based; details: for ALP activity induced by the hit siRNAs or OS, on co-transfection: co-transfected with each hit siRNA, compared to siCon co-transfection
Procedure: as §1
Fifty five hits that gave rise to a significant increase of ALP activity on day 7 after siRNA transfection in hMSCs were identified and confirmed (FIG. 2a & Table 1).

[7] = tested on: ERK1/2 and p38; test: Western blot of phosphorylated ERK1/2 and p38; assay type: cell-based, human; details: 72 hours after transfection
Procedure: Cell lyses buffer contains 20 mM Tris pH8.0, 1 mM EDTA, 150 mM NaCl and 0.5% NP-40, and before usage, protease inhibitor cocktail (Cat# p8340, Sigma, 1:100 dilution) and phosphatase inhibitor cocktail 2 (Cat# p5726, sigma, 1:100 dilution) were added. Proteins (60 μg/well) were separated in 12% Novex Tris-Glycine gel (Cat# EC6008 box, Invitrogen) and transferred to Nitrocellulose membrane (Cat# LC2001, Invitrogen) using the XCell II blot module system (Cat# EI9051, Invitrogen). The membrane was blocked in 5% milk/PBST for 1 hour at room temperature, incubated over night at 4 degree with primary antibody, washed 3 times with PBST (0.05% Tween 20 in PBS), followed by one hour incubation with secondary antibody in 5% milk/PBST and 3 times wash with PBST at room temperature. For antibody against pCREB however, PBST was substituted with PBS in all steps except for the last one. Antibody-bound proteins were detected utilizing ECL Western blotting detection reagent (Amersham Biosciences).
Anti-phospho-CREB was purchased from Upstate Biotechnology (cat# 06-519); Anti-phospho-p38 was purchased from Cell signaling technology (cat# 9910).
We therefore examined the activation status of ERK1/2 and p38 in the siDUSP6 treated hMSCs along with other siRNA treated samples by western blot using antibodies against the phosphorylated form of the protein at 72 hours after transfection (FIG. 9c).

“5′-TGACGTCATGACGTCATGACGTCA-3′ (DNA dT*dG*dA*dC*dG*dT*dC*dA*dT*dG*dA*dC*dG*dT*dC*dA*dT*dG*dA*dC*dG*dT*dC*dA) [CRE decoy, synthetic 24-mer CRE decoy palindrome oligonucleotide, phosphorothioate bond modification on all nucleotides]” was tested, and the “adipogenic differentiation after decoy transfection” value [1] was “inhibited cells from undergoing adipogenic differentiation”, the “adipogenic differentiation after decoy transfection” value ([1]; listed as CRE (CREB responding element) decoy) was “less responsive” and the “osteogenic differentiation after decoy transfection” value ([1]; osteogenic induction media (OS), listed as CRE (CREB responding element) decoy) was “less responsive”.

For `Nc1ncnc2c1c(I)cn2[C@@H]1O[C@H](CO)[C@@H](O)[C@H]1O` [5-iodotubercidin], the “adipogenic differentiation of hMSCs (oil red o staining), compound” value ([2]; adipogenic inducing media plus compound) was “inhibited the adipogenic differentiation of hMSCs in a dose dependent manner” and the “osteogenic effect of the OS media on hMSCs” value [3] was “significantly enhanced; also recorded: enhanced the osteogenic effect of the OS media”.

For “CAGAUGCAUCGACCAAAAC (siRNA; listed as RNA, chemistry not fully specified) [siMJD, siRNA targeting Machado-Joseph disease (ataxin 3)]”, the “expression of PLZF (RT-PCR)” value [4] was “detected; also recorded: induced” and the “intensity of alizarin red staining (bone cell maturation), 3+9OS” value [5] was “no significant effect”.

For “CGGUCACGGAUGACGACUA (listed as RNA, chemistry not given here) [siCOMP, siRNA targeting cartilage oligomeric matrix protein]”, the “adipogenesis induced by adipogenic inducing media (Oil Red O)” value ([2]; Adipo on the third day after siRNA transfection, continued for 12 days) was “enhances adipogenesis” and the “osteogenic differentiation (alkaline phosphatase activity)” value ([6]; 9 days after siRNA transfection) was “induces osteogenic differentiation”.

“CUGUGGUGUCUUGGUACAU (listed as RNA, chemistry not given here) [siDUSP6, siRNA targeting dual specificity phosphatase 6]” was tested, and the “phosphorylated (active) p38 level (Western blot)” value [7] was “increased level; also recorded: up regulated” and the “intensity of alizarin red staining (bone cell maturation), 3+9OS” value [5] was “modest enhancement”.

For “UAGUAGAGAUAUGGAGUGCtg (antisense); GCACUCCAUAUCUCUACUAtt (sense) (chain 1 UAGUAGAGAUAUGGAGUGCTG; chain 2 GCACUCCAUAUCUCUACUATT; chemistry not given here) [CBFA1 siRNA, CBFA 1-specific siRNA]”, the “ALP activity induced by the hit siRNAs or OS, on co-transfection” value [6] was “reduced the level of ALP activity” and the “ALP activity induced by the hit siRNAs or OS, on co-transfection” value ([6]; listed as siCbfa 1) was “reduced”.
